The target in data set [1] is T1, rat SGLT2 (Rattus norvegicus, UniProt P53792).
T1 construct: expressed in transfected cells; host or cells: COS-7
T1 sequence (P53792 1-670): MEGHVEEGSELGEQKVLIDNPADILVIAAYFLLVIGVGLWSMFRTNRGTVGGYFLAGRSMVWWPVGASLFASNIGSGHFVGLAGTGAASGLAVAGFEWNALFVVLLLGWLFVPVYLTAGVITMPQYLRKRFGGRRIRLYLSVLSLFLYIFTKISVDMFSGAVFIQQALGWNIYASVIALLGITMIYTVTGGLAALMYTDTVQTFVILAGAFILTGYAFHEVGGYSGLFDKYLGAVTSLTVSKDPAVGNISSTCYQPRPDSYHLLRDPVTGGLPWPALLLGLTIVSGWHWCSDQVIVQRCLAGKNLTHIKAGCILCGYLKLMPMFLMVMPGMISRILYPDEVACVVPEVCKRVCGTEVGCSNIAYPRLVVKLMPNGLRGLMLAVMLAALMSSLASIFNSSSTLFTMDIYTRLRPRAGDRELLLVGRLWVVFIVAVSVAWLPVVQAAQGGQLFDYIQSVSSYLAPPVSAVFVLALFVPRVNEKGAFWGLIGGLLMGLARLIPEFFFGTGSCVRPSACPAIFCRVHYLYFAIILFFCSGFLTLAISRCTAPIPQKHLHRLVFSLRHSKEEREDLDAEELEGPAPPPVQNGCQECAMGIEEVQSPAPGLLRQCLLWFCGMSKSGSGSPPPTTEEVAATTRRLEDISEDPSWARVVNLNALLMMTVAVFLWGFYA
As to the kind of experiment: Inhibition of radiolabeled α-MG uptake into COS-7 cells transfected with rat SGLT2 (Dixon plot). The class given is cell-based. The settings on record: α-MG 0.3 and 1 mM. How it is done: Selective inhibition study. Inhibition constants (Ki) of mizagliflozin for rat and human SGLT1 and SGLT2 were determined measuring concentration-dependent effects of test compound on uptake of radiolabeled methyl-α-D-glucopyranoside (α-MG) into COS-7 cells transiently transfected with cloned SGLT1 or SGLT2. Mizagliflozin was assessed at concentrations from 1 to 30 μM and 3 to 100 μM for human and rat SGLT2, respectively. It was assessed at concentrations from 30 nM to 1 μM and 10 to 30 nM for human and rat SGLT1, respectively. α-MG test concentrations were 0.3 and 1 mM. Data were analyzed and Ki determined using Dixon plots of initial transport rates. […] Inhibition constants were also determined for human SGLT1 and SGLT2.

Data set [2] concerns normal Sprague Dawley rats. As to the kind of experiment: Mixed carbohydrate tolerance test in normal rats. The class given is in vivo, rat. How it is done: Study on normal rats. The efficacy of mizagliflozin (decreasing plasma glucose levels) in normal Sprague Dawley rats was determined in a mixed carbohydrate tolerance test. Normal rats were fasted for 16 hours and then given an oral loading dose of 2.0 g/kg of mixed carbohydrate (soluble starch:sucrose:lactose monohydrate=6:3:1). Mizagliflozin (KGA-3235 sebacate), or water as the vehicle control, was then administered as a single oral dose to groups of male rats (n=8/group) at doses of 0.03, 0.1, 0.3, and 1 mg/kg. Voglibose, a glucosidase inhibitor similar to acarbose, was used as a positive control and was administered as a single oral dose to male rats (n=8/group) at dose levels of 0.1, 0.3 and 1 mg/kg. Blood samples were collected just prior to loading with mixed carbohydrate and at 0.5, 1, 2, 3, 4, and 6 hours after loading.

The subject of data set [3] is STZ-induced diabetic rats. As to the kind of experiment: Mixed carbohydrate tolerance test in STZ-induced diabetic rats (Example 3). The data set is classed as in vivo, rat. How it is done: Study in diabetic rats. Mizagliflozin was tested in a rat model for diabetes and efficacy, as measured by a relative decrease in plasma glucose, was determined using a mixed carbohydrate tolerance test. Diabetic model rats were prepared by intravenous administration of streptozotocin (STZ) to induce diabetes. Seven days after STZ administration, rats were fasted for 16 hours and then given an oral loading dose of 2.0 g/kg of mixed carbohydrate (soluble starch:sucrose:lactose monohydrate=6:3:1). Mizagliflozin, or water as the vehicle control, was then administered as a single oral dose to groups of male rats (n=8/group) at doses of 0.01, 0.03, 0.1, and 0.3 mg/kg. Another control group was given vehicle and consisted of normal male Sprague Dawley rats that were not administered STZ. Voglibose was also administered as a single oral dose to male rats (n=8/group) at dose levels of 0.03, 0.1 and 0.3 mg/kg. Blood samples were collected just prior to loading with mixed carbohydrate and at 0.5, 1, 2, 3, 4, and 6 hours after loading. Plasma glucose concentrations were determined and ΔAUC0-1 h for plasma glucose was calculated.

Data set [4] has as its system STZ-induced diabetic rats. As to the kind of experiment: Oral glucose tolerance test in STZ-induced diabetic rats (Example 4). The class given is in vivo, rat. As to the method: Study in diabetic rats using oral glucose tolerance test. Efficacy of mizagliflozin was tested in a rat model for diabetes using an oral glucose tolerance test (OGTT). Diabetic model rats were prepared by intravenous administration of STZ to induce diabetes. Seven days after STZ administration, rats were fasted for 16 hours and then given an oral loading dose of 2.0 g/kg of glucose. Mizagliflozin, or water as the vehicle control, was then administered as a single oral dose to groups of male rats (n=8/group) at doses of 0.03, 0.1, 0.3, and 1 mg/kg. Another control group was given vehicle and consisted of normal male Sprague Dawley rats that were not administrated STZ. Voglibose was also administered as a single oral dose to male rats (n=8/group) at dose levels of 0.1, 0.3 and 1 mg/kg. Blood samples were collected just prior to loading with mixed carbohydrate and at 0.5, 1, 2, 3, 4, and 6 hours after loading. Plasma glucose concentrations were determined and ΔAUC0-1 h for plasma glucose was calculated.

Data set [5] can be described thus: Excretion after oral dosing in non-human primates. The data set is classed as in vivo. The text has this: Accordingly, the SGLT1 inhibitor compounds of Formula I or Formula II are locally acting in the gut, and have poor systemic exposure. […] Systemic exposure (e.g., Cmax) can be measured by methods well known in the art, including liquid chromatography mass spectrometry.

Setting [6] is: Rattus norvegicus, read-out: ED50 calculated from mean ΔAUC0-1 h (% of control), mixed carbohydrate 2.0 g/kg, single oral dose.

The Ki is the dissociation constant of the complex between target and ligand, obtained from inhibition or displacement. Higher therefore signals weaker binding.

Structures are written as SMILES.

In data set [1], `Cc1cc(OCCCNCC(C)(C)C(N)=O)ccc1Cc1c(O[C@@H]2O[C@H](CO)[C@@H](O)[C@H](O)[C@H]2O)n[nH]c1C(C)C` [mizagliflozin, 3-(3-{4-[3-(β-D-glucopyranosyloxy)-5-isopropyl-1H-pyrazol-4-ylmethyl-]-3-methylphenoxy}propylamino)-2,2-dimethylpropionamide] displayed a Ki of 14 µM. For the same compound, the ED50 was 0.13 mg/kg in data set [2] (setting [6]); 0.096 mg/kg in data set [3] (setting [6]); 0.099 mg/kg in data set [4] (Rattus norvegicus, read-out: ED50 calculated from mean ΔAUC0-1 h (% of control), glucose 2.0 g/kg, single oral dose). In addition, the “ΔAUC0-1 h of plasma glucose versus vehicle control” value in data set [2] (mixed carbohydrate 2.0 g/kg), in data set [3] (mixed carbohydrate 2.0 g/kg) and in data set [4] (glucose 2.0 g/kg) was “significantly lowered” throughout. For the same compound, the “excreted in the feces” value in data set [5] is recorded as > 82 % of orally administered dose.

Values taken from patent publication US11596644B2, “Method for treating post-prandial hypoglycemia” (AVOLYNT, priority 2018, dated 2023).
